Measurements from US20110098257A1, “DERIVATIVES OF 4- OR 5-AMINOSALICYLIC ACID” (ANTIBE THERAPEUTICS INC., priority 2005, published 2011).
Where a name gives a salt, the structure may show the parent alone.

Assays:
[1] = test system: visceral pain in response to colorectal distension; test: Rat model of visceral pain perception (colorectal distension, AWR score); assay type: in vivo, Rats (male, Wistar); conditions: for pain perception: equimolar doses: mesalamine 50, Compound XXXV 130, ADT-OH 80, Compound XXVII 100, 4-HTB 50 mg/kg; for pain perception / pain perception score: vs vehicle-treated group; for pain perception score after glibenclamide pretreatment / pain perception score: 0.8 mL colorectal distention, 100 mg/kg, FIG. 17; for pain perception score after glibenclamide pretreatment: glibenclamide 10 mg/kg i.p. 30 min before
Experimental: A rat model of visceral pain perception, a pre-clinical model of irritable bowel syndrome, was used in the following example. Rats (male, Wistar, 200-250 g, obtained from Charles River, Monza, Italy), were housed in plastic cages and maintained under controlled conditions with 12-hours light/dark cycle with lights on at 7.00 AM. Tap water and standard laboratory chow were freely available. Before experiments, rats were individually trained by spending 2-3 hours per day in a plexiglass cage for 2-3 days. It allowed them to adjust to a movement-restriction environment. Food was withheld for 12 hours before colorectal distension (CRD) recording were performed. Experiments were performed in awake rats and were conducted in a blind manner in that the observer was not aware of the identity of drug administered to each animal.
In the testing day, rats were sedated with ether inhalation and a 2 cm long latex balloon was inserted intrarectally 2 cm from the anal verge and fixed at the base of the tail. The balloon was connected via a double-barreled cannula to a pressure transducer to continuously monitoring the rectal pressure by a computer (PowerLab PC, A.D. Instruments, Milford, Mass., USA) and to a syringe for inflation/deflation of the balloon. The rats were then housed in a small cage (20×8×8 cm) on an elevated Plexiglas™ platform and allowed to wake up and adapt for 1 hour. After recovery from sedation, animals underwent the CRD procedure and behavioral responses were tested. The night before the experiments, the balloons were inflated and left overnight so the latex stretched and the balloons became compliant.
CRD of 20 seconds, performed every 5 minutes, was applied in increment of 0.4 ml starting from 0.4 ml up to 1.6 ml water. To achieve an accurate measurement of the colonic parameters and perception, the distensions were repeated twice for each intensity and data for each animal were averaged for analysis. Each animal underwent a double set of CRD. Twenty minutes after the first sequence of CRD (0.4 mL-1.6 ml water), drugs were administered intraperitoneally (i.p.) and a second set of CRD was performed. Behavioral responses during the first and the second set of CRD were assessed and compared.
Behavioral response to CRD was assessed by measuring the abdominal withdrawal reflex (AWR) using a semiquantitative score (1).
The effects of mesalamine and Compound XXXV on colonic compliance and sensitivity were determined using a total of 8 fasting rats. To investigate whether the administration of mesalamine and Compound XXXV could revert pain induced by CRD, after the first sequence of CRD, […], after which a second set of CRD was repeated.
To determine the effect of mesalamine or Compound XXXV on colonic smooth muscle, the compliance of the colo-rectum during CRD was obtained from intracolo-rectal volume and pressure and expressed as mL/mmHg.
All data are presented as the mean±SEM, with sample sizes of 4 rats/group; statistical comparison of paired data was performed by the Wilcoxon signed rank test. An associated probability (p value) of less that 5% was considered significant.
A rat model of visceral pain perception as described above was used to compare pain perception scores for both Compound XXXV and Compound XXVII with or without glibenclamide, an inhibitor of ATP-sensitive K^+ (KATP) channels.

[2] = test system: leukocyte adherence in mesenteric post-capillary venules; test: Leukocyte adherence to the vascular endothelium in vivo (intravital microscopy, aspirin-induced); set-up: species or system Rats
Experimental: Leukocyte adherence was studied using intravital microscopy, as described in detail previously (Wallace et al., (1993) Am. J. Physiol. 265: 993-998, incorporated hereto by reference). Rats were anesthetized with pentobarbital sodium (60 mg/kg i.p.) and cautery incisions were made along the abdominal region. A tracheotomy was performed to facilitate breathing. The rats were placed in a supine position, and a segment of the mesentery was exteriorized through the abdominal incision. The mesentery was carefully placed over an optically clear viewing pedestal that allowed for trans-illumination of a 2-cm^2 segment of tissue. All exposed tissue was covered with saline-soaked gauze to minimize dehydration. The temperature of the pedestal was kept at 37° C. and the mesentery was superfused with warmed bicarbonate-buffered saline (pH 7.4). An intravital microscope (Nikon L25/0.35) and a ×10 eyepiece were used to observe the mesenteric microcirculation. Post-capillary venules with diameters ranging from 20 to 40 μm were selected for the study. A video camera mounted on the microscope (Panasonic™ digital 5000) projected the image onto a monitor, and the images were recorded for playback analysis using a videocassette recorder. Images of the mesenteric microcirculation were recorded 5 minutes prior to aspirin administration (baseline), at the time of aspirin administration (time 0-5) and every 15 minutes for 60 minutes. Leukocyte adherence was blindly quantified from videotaped images of the vessels made over 5-min periods as the number of leukocytes that remained stationary along the vessel wall for 30 s or more (expressed per 100 μm venule length). Groups of rats (at least 5 in each) were pretreated with Compound XXXV (130 mg/kg), Compound XXVII (100 mg/kg), mesalamine (50 mg/kg), or vehicle 60 min prior to aspirin (or vehicle) administration. These drugs were given intragastrically. In some experiments, rats were treated with glibenclamide (10 mg/kg i.p.) or vehicle 30 min prior to administration of these compounds.

[3] = test system: PE (1 μM) precontracted rings of thoracic aorta; test: Vasorelaxant effect on PE precontracted thoracic aorta rings; set-up: species or system CD-1 mice; conditions: cumulative concentration-response 10 nM-3 mM, endothelium present, vs vehicle; FIG. 22
Experimental: CD-1 mice were sacrificed and thoracic aorta was rapidly dissected and cleaned from fat and connective tissue. […] Changes in isometric tension were recorded with PowerLab™ data acquisition system (Ugo Basile, Italy). […] Rings were initially stretched until a resting tension of 1.5 g was reached and allowed to equilibrate for at least 40 minutes during which tension was adjusted, when necessary, to 1.5 g and bathing solution was periodically changed.
Vehicle represents buffer but no compound. Curves to tested compounds were constructed in presence of endothelium.
Data obtained are shown in FIG. 22 and are expressed as mean±SEM. The level of statistical significance was determined by 2-way analysis of variance (ANOVA) followed by Bonferroni's test for multiple comparison, using the GraphPad™ software.

[4] = test system: mice having TNBS-induced colitis; test: TNBS-induced colitis in mice (disease activity score, colonic MPO activity); assay type: in vivo, Balb/c mice
Experimental: A standard experimental animal model of colitis induced by intracolonic administration of 2,4,6-trinitrobenzene sulfonic acid (TNBS) to mice is used in the following example. A detailed description of this model has been published (Santucci et al. (2003) Gastroenterology 124:1381-94) and is incorporated herein by reference. Briefly, 6-8 week old Balb/c mice were given TNBS intracolonically at a dose of 1.5 mg in 0.1 mL of 30% ethanol. The mice were randomized to the various treatment groups (n=6 per group). Beginning one hour later and continuing every 12 h for 5 days, the mice were treated orally with vehicle (1% carboxymethylcellulose (CMC)), 5-ASA (mesalamine) (25, 50 or 75 mg/kg) or with equimolar doses of 2-hydroxy-5-amino-benzoic acid 4-(thioxo-5H-[1,2]dithiol-3-yl)-phenyl ester hydrochloride (Compound XXXV) (130 mg/kg), or with […] (100 mg/kg), 50% (66 mg/kg) and 25% (33 mg/kg) of that dose. The mice were evaluated (blindly) on the final day of the study for the presence of diarrhea and fecal occult blood, and their body weights were measured. […] After sacrifice, a sample of the colon was excised for measurement of myeloperoxidase (MPO) activity, as a marker of granulocyte infiltration. All results were compared to those obtained with healthy mice as well.
FIGS. 3 and 4 show the Disease Activity Index and MPO activity, respectively, using the same experimental animal model of colitis as described above, in which Compound XXXV (130 mg/kg) was compared to equimolar doses of its two constituents, mesalamine (50 mg/kg) and 5-p-hydroxyphenyl-[…] (ADT-OH) (80 mg/kg), and a mixture of mesalamine (50 mg/kg) and ADT-OH (80 mg/kg). *p<0.05 versus the vehicle-treated group. Each group consisted of at least 5 rats.
FIGS. 6 and 7 show the Disease Activity Index and MPO, respectively, using the same experimental animal model of colitis as described above, in which Compound XXVII (100 mg/kg) was compared to equimolar doses of its two constituents, mesalamine (50 mg/kg) and 4-hydroxythiobenzamide (4-HTB) (50 mg/kg), mesalamine alone (50 mg/kg) and 4-HTB alone (50 mg/kg). *p<0.05 versus the vehicle-treated group. Each group consisted of at least 5 rats.
The same model was used as described above. In this example, the effects of mesalamine (50 mg/kg) were compared to those of equimolar doses of Compound XXXV. In addition to measuring the severity of colitis by measuring disease activity score and MPO activity, tissues were processed for measurement of a number of genes for inflammatory cytokines and other mediators.

[5] = after patients have taken the usual doses; Dig. Dis. Sci. 1989; 34: 573-578; cited from earlier work

**Q.** Which melting point does the source give for Nc1ccc(O)c(C(=O)Oc2ccc(-c3cc(=S)ss3)cc2)c1 (as salt: hydrochloride) [Compound XXXV, 5-Amino-2-hydroxy-benzoic acid 4-(5-thioxo-5H-[1,2]dithiol-3-yl)-phenyl ester] here?
**A.** 93 to 95 °C

**Q.** Which pain perception [1] does the source give for Oc1ccc(-c2cc(=S)ss2)cc1 [ADT-OH, 5-p-hydroxyphenyl-1,2-dithione-3-thione, reference compound] here?
**A.** Only Compound XXXV and Compound XXVII significantly reduced pain perception

**Q.** Which “leukocyte adherence after intragastric aspirin” value ([2]; vs baseline period / vehicle+vehicle group, FIG. 19) does the source give for CC(=O)Oc1ccccc1C(=O)O [Aspirin, aspirin, reference compound] here?
**A.** markedly increased leukocyte adherence

**Q.** Which “vasorelaxant effect (% relaxation)” value [3] does the source give for NC(=S)c1ccc(O)cc1 [Compound 4-HTB, 4-hydroxythiobenzamide, reference compound] here?
**A.** significant vasorelaxant effects, which were concentration dependent

**Q.** What about the pain perception [1] of the same compound?
**A.** Only Compound XXXV and Compound XXVII significantly reduced pain perception

**Q.** For NC(=S)c1ccc(OC(=O)c2cc(N)ccc2O)cc1 [Compound XXVII, 5-Amino-2-hydroxy-benzoic acid 4-thiocarbamoyl-phenyl ester], which “Disease Activity Index” value ([4]; Compound XXVII 100 mg/kg vs mesalamine 50 mg/kg, 4-HTB 50 mg/kg and their mixture, FIG. 5) is on record?
**A.** almost three times as effective as either mesalamine alone, 4-HTB alone or a mixture of mesalamine and 4-HTB

**Q.** And the “MPO activity (granulocyte infiltration)” value ([4]; Compound XXVII 100 mg/kg, FIG. 6)?
**A.** significantly reduced inflammation

**Q.** And the “aspirin-induced leukocyte adherence, final time period” value ([2]; minutes 60-65, Compound XXXV 130 mg/kg, Compound XXVII 100 mg/kg, FIG. 20)?
**A.** suppress aspirin-induced leukocyte adherence

**Q.** What about the “aspirin-induced leukocyte adherence, final time period, with glibenclamide pretreatment” value ([2]; minutes 60-65, glibenclamide 10 mg/kg i.p., FIG. 20) of the same compound?
**A.** glibenclamide pretreatment to reverse this inhibitor effect

**Q.** And the “pain perception score after glibenclamide pretreatment” value [1]?
**A.** reversed by pretreatment with glibenclamide

**Q.** What about the pain perception score [1] of the same compound?
**A.** significantly reduced the pain perception

**Q.** And the pain perception [1]?
**A.** significantly reduced pain perception

**Q.** And the melting point?
**A.** 193 to 195 °C

**Q.** What does the source list for COc1ccc(Cl)cc1C(=O)NCCc1ccc(S(=O)(=O)NC(=O)NC2CCCCC2)cc1 [Glibenclamide, glibenclamide, reference compound]?
**A.** leukocyte adherence, glibenclamide alone ([2]; glibenclamide 10 mg/kg i.p., no aspirin, FIG. 19): did not affect leukocyte adherence; aspirin-induced increase in leukocyte adherence ([2]; pretreatment: Compound XXXV 130 mg/kg or mesalamine 50 mg/kg intragastrically 60 min prior to aspirin, glibenclamide 10 mg/kg i.p., FIG. 19): did not affect the magnitude of aspirin-induced leukocyte adherence

**Q.** For Nc1ccc(O)c(C(=O)O)c1 [mesalamine, 5-aminosalicylic acid], which “aspirin-induced leukocyte adherence with glibenclamide pretreatment” value ([2]; glibenclamide 10 mg/kg i.p. 30 min prior to the compound, compound plus aspirin, FIG. 19) is on record?
**A.** no effect

**Q.** And the “pain perception score after glibenclamide pretreatment” value [1]?
**A.** did not affect the pain perception

**Q.** And the pain perception score [1]?
**A.** had no significant effect

**Q.** What about the pain perception [1] of the same compound?
**A.** Only Compound XXXV and Compound XXVII significantly reduced pain perception

**Q.** What about the “mesalamine concentration in the colonic lumen” value [5] of the same compound?
**A.** up to 5 mM

**Q.** With CC(=N)S [thioacetamide] as the compound, how does the “vasorelaxant effect (% relaxation)” value [3] read?
**A.** significant vasorelaxant effects, which were concentration dependent
